Source: ChEMBL document CHEMBL5604063, “ASAP - DENV-2 NS2B-NS3 protease fluorescence dose response” (2024)
Several values for one entry are separate records, joined by “and”; a condition that tells them apart may be missing. Equal entries are not always repeated.

Target: Genome polyprotein (dengue virus type 2, UniProt P29990)
Assay type: functional, Thailand/16681/1984

Chain of Genome polyprotein (P29990 1346-1475 limits assumed): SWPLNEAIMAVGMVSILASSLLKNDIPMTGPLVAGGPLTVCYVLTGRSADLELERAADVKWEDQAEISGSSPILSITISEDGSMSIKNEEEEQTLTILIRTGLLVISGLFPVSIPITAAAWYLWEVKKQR
Chain of Genome polyprotein (P29990 1476-2093 limits assumed): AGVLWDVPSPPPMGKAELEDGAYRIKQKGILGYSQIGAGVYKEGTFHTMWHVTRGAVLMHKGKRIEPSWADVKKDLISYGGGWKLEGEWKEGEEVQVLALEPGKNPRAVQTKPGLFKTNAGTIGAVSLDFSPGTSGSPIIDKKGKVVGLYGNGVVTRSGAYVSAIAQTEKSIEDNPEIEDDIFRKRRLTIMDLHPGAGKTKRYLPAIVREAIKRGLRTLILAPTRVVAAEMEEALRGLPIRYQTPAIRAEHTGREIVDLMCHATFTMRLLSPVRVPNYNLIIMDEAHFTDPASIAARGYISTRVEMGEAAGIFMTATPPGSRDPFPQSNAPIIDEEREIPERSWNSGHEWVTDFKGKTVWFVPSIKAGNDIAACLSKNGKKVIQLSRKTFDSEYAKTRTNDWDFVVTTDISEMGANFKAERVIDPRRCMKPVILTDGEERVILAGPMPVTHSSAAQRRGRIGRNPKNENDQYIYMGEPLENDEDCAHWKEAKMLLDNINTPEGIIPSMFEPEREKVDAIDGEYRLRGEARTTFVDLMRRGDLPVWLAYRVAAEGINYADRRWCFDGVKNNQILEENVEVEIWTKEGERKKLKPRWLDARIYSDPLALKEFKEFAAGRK

Structure (SMILES): Cc1cc(C(=O)Nc2ccc3c(c2)CNC3)c2cn[nH]c2c1
- IC50: > 99.5 µM

Structure (SMILES): Cc1ccc(S(=O)(=O)CNC(=O)[C@H](Nc2ccc3c(c2)CNC3)c2cc(Cl)cc3[nH]ncc23)cc1
- IC50: > 99.5 µM

Structure (SMILES): CC(C)(C)c1ccc(Cl)cc1C(=O)Nc1ccc2c(c1)CNC2
- IC50: > 99.5 µM

Structure (SMILES): Cc1n[nH]c2nc(Cl)cc(C(=O)Nc3ccc4c(c3)CNC4)c12
- IC50: > 99.5 µM

Structure (SMILES): O=C(Cc1cccc2[nH]ncc12)Nc1ccc2c(c1)CNC2
- IC50: > 99.5 µM

Structure (SMILES): C=C1C[C@H](c2cccc(CN)c2)[C@@H](c2cc(Cl)cc(NC(=O)OCc3ccccc3)c2)C1
- IC50: > 99.5 µM

Structure (SMILES): O=C(Nc1ccc2c(c1)CNC2)c1cc(Cl)ccc1SC1CCCC1
- IC50: > 99.5 µM

Structure (SMILES): O=C(Nc1ccc2c(c1)CNC2)c1cc(F)cc2[nH]nnc12
- IC50: > 99.5 µM

Structure (SMILES): Clc1ccc2ncn(Cc3ccc4c(c3)CNC4)c2c1
- IC50: > 99.5 µM

Structure (SMILES): Clc1ccc2c(c1)ncn2Cc1ccc(-c2nn[nH]n2)cc1
- IC50: > 99.5 µM

Structure (SMILES): O=C(Nc1ccc2c(c1)CNC2)c1ncc(Br)s1
- IC50: > 99.5 µM

Structure (SMILES): O=C(Nc1ccc2c(c1)CNC2)c1ncnc2ccsc12
- IC50: > 99.5 µM

Structure (SMILES): COC(=O)CNC(=O)[C@H](Nc1ccc2c(c1)CNC2)c1cc(Cl)cc(C2CC2)c1
- IC50: > 99.5 µM

Structure (SMILES): Cc1c(C(=O)Nc2cc(CCCN)ccn2)cc(-c2ccccc2)n1C
- IC50: > 99.5 µM

Structure (SMILES): O=C(Nc1ccc2c(c1)CNC2)N1C[C@H](C(F)F)C2(CC2)C1
- IC50: > 99.5 µM

Structure (SMILES): O=C(c1cc(Cl)cc2[nH]ncc12)N1CCC[C@H]1C1CCNCC1
- IC50: > 99.5 µM

Structure (SMILES): O=C1CCc2cc(NC(=O)c3cc(Cl)cc4[nH]ncc34)ccc2N1
- IC50: > 99.5 µM

Structure (SMILES): Cc1c(C(=O)Nc2cc(CCCN)ccn2)cc(C#N)n1C
- IC50: > 99.5 µM

Structure (SMILES): CC(C)NC(=O)[C@H](Nc1ccc2c(c1)C(=O)OC2)c1cc(Cl)cc2[nH]ncc12
- IC50: > 99.5 µM

Structure (SMILES): O=Cc1ccc(N2CCC(C(=O)N3CCN(c4ccc([N+](=O)[O-])cc4C(F)(F)F)CC3)CC2)cc1
- IC50: > 99.9 µM

Structure (SMILES): O=Cc1ccc(N2CCC(C(=O)Nc3cccc(Br)n3)CC2)cc1
- IC50: 14.4 µM

Structure (SMILES): O=Cc1ccc(N2CCC(C(=O)NCCc3ccc(O)c(O)c3)CC2)cc1
- IC50: 35 µM

Structure (SMILES): CN1[C@@H]2CCC[C@H]1C[C@@H](NC(=O)C1CCN(c3ccc(C=O)cc3)CC1)C2
- IC50: 98.7 µM

Structure (SMILES): CC(C)NC(=O)[C@H](Nc1ccc2c(c1)CNC2)c1cc(Cl)cc2[nH]c(-c3ccccc3)nc12
- IC50: 10.2 µM and 4.1 µM and 35.8 µM

Structure (SMILES): O=C1OCc2ccc(NC(=O)[C@H]3CCNC34CCCC4)cc21
- IC50: > 99.5 µM

Structure (SMILES): C=CC[C@H](Nc1cc([C@H]2CCOC2)ccn1)c1cc(C2CC2)n(C)n1
- IC50: > 99.5 µM

Structure (SMILES): O=C(Nc1ccc2c(c1)CNC2)c1cc(Cl)cc2nn[nH]c12
- IC50: > 99.5 µM

Structure (SMILES): NCCCOc1cc(-c2ccc(N)nc2)cc2c1COB2O
- IC50: > 99.5 µM

Structure (SMILES): O=Cc1ccc(N2CCC(C(=O)N3CCC(N4CCc5ccccc5C4)CC3)CC2)cc1
- IC50: > 99.9 µM

Structure (SMILES): CS(=O)(=O)Nc1cccc(C(=O)Nc2ccc3c(c2)CNC3)c1
- IC50: > 99.5 µM

Structure (SMILES): O=C(Nc1ccc2c(c1)CNC2)c1cc(F)cc(C2=CCCOC2)c1
- IC50: > 99.5 µM

Structure (SMILES): O=C(O)c1cc2cc(-c3nccc(C(F)F)n3)ccc2[nH]1
- IC50: > 99.5 µM

Structure (SMILES): NC[C@@H]1CN(c2cc(-c3ccc(N)nc3)cc3c2COB3O)C(=O)O1
- IC50: > 99.5 µM

Structure (SMILES): COCc1cc(Cl)cc(S(=O)(=O)Nc2cccc(-c3nnn[nH]3)c2)c1
- IC50: > 99.5 µM

Structure (SMILES): O=Cc1ccc(N2CCC(C(=O)NC[C@H](O)c3ccc(O)c(O)c3)CC2)cc1
- IC50: 33.4 µM

Structure (SMILES): CC(C)c1nn(C)cc1-c1cc(F)cc(C(=O)Nc2ccc3c(c2)CNC3)c1
- IC50: > 99.5 µM

Structure (SMILES): CC(C)[C@@H]1C(=O)O[C@H]1C(=O)O
- IC50: > 99.5 µM

Structure (SMILES): O=Cc1ccc(N2CCC(C(=O)NCc3cccc(-c4ccccc4)c3)CC2)cc1
- IC50: 53.3 µM

Structure (SMILES): COc1cc(C(=O)Nc2ccc3c(c2)CNC3)cc2ccoc12
- IC50: > 99.5 µM

Structure (SMILES): O=C1OCc2ccc(NC(=O)c3cc(F)cc4[nH]ncc34)cc21
- IC50: > 99.5 µM

Structure (SMILES): O=Cc1ccc(N2CCC(C(=O)N3CCC(CCN4CCCC4)CC3)CC2)cc1
- IC50: > 99.9 µM

Structure (SMILES): O=Cc1ccc(N2CCC(C(=O)NCCc3ccccc3[N+](=O)[O-])CC2)cc1
- IC50: 93.9 µM

Structure (SMILES): CCN1CCN(c2ccc(NC(=O)C3CCN(c4ccc(C=O)cc4)CC3)cc2)CC1
- IC50: 73 µM

Structure (SMILES): CS(=O)(=O)c1ccc(N2CCN(C(=O)C3CCN(c4ccc(C=O)cc4)CC3)CC2)c([N+](=O)[O-])c1
- IC50: 85.7 µM

Structure (SMILES): CCSc1ccc(Cl)cc1C(=O)Nc1ccc2c(c1)CNC2
- IC50: > 99.5 µM

Structure (SMILES): Cc1c(CN)c(C(=O)Nc2cc(-c3cccnc3)ccn2)nn1C
- IC50: > 99.5 µM

Structure (SMILES): O=Cc1ccc(N2CCC(C(=O)NCCN3CCc4ccccc43)CC2)cc1
- IC50: 20.3 µM

Structure (SMILES): C[C@H]1c2cc(O)c(O)cc2CCN1C(=O)C1CCN(c2ccc(C=O)cc2)CC1
- IC50: 80.5 µM

Structure (SMILES): O=Cc1ccc(N2CCC(C(=O)NC[C@@H]3CCCN4CCCC[C@H]34)CC2)cc1
- IC50: > 99.9 µM

Structure (SMILES): O=C(Nc1cc(-c2cccnc2)ccn1)c1nc(Br)n2c1CNCC2
- IC50: > 99.5 µM

Structure (SMILES): CCNC(=O)Nc1cc(Cl)cc(C(=O)Nc2cccc(C3CCNCC3)c2)c1
- IC50: > 99.5 µM

Structure (SMILES): O=Cc1ccc(N2CCC(C(=O)Nc3ccc(Br)cc3O)CC2)cc1
- IC50: 33.9 µM

Structure (SMILES): NCCCOc1cc2c(c(-c3ccc(N)nc3)c1)CCB(O)O2
- IC50: > 99.5 µM

Structure (SMILES): CC(C)[C@H](N)P(=O)(Oc1ccc(F)cc1)Oc1ccc(F)cc1
- IC50: > 99.5 µM

Structure (SMILES): O=Cc1ccc(N2CCC(C(=O)NCCC3CCN(Cc4ccccc4)CC3)CC2)cc1
- IC50: 99.7 µM

Structure (SMILES): O=C(NCC1CCCCC1)[C@H]1CCCN1C(=O)Nc1ccc2c(c1)CNC2
- IC50: > 99.5 µM

Structure (SMILES): c1cc(C2CCN(Cc3c[nH]c4ccccc34)CC2)c2ccncc2c1
- IC50: > 99.5 µM

Structure (SMILES): N#C[C@H](Nc1ccc2c(c1)CNC2)c1cc(Cl)cc2c1OCC2
- IC50: > 99.5 µM

Structure (SMILES): O=C(Nc1cc(-c2cccnc2)ccn1)c1cc2n(c1)CCC2
- IC50: > 99.5 µM

Structure (SMILES): CC1CCN(CCCCNC(=O)C2CCN(c3ccc(C=O)cc3)CC2)CC1
- IC50: > 99.9 µM

Structure (SMILES): O=C(Nc1ccc2c(c1)CNC2)c1cc(Cl)cc(C(F)(F)F)n1
- IC50: 22.5 µM

Structure (SMILES): Cc1ccc2cccc(NC(=O)C3CCN(c4ccc(C=O)cc4)CC3)c2n1
- IC50: 22.4 µM

Structure (SMILES): O=C(Nc1ccc2c(c1)CNC2)c1cccc2c1OCO2
- IC50: > 99.5 µM

Structure (SMILES): O=Cc1ccc(N2CCC(C(=O)NCC(=O)c3ccc(O)cc3)CC2)cc1
- IC50: 52.9 µM

Structure (SMILES): O=C(Nc1ccc2c(c1)CNC2)c1cccc2nc(C(F)(F)F)[nH]c12
- IC50: > 99.5 µM

Structure (SMILES): Cc1c(C(=O)Nc2cc(-c3cccnc3)ccn2)c2ccccc2n1C
- IC50: > 99.5 µM

Structure (SMILES): C#C[C@H](Nc1ccc2c(c1)CNC2)c1cccc2c1CCNC2=O
- IC50: > 99.5 µM

Structure (SMILES): O=C(Nc1ccc2c(c1)CNC2)c1cc(F)c2[nH]nnc2c1
- IC50: > 99.5 µM

Structure (SMILES): Cc1c(C(=O)Nc2cccc(-c3cncnc3O)c2)cc(C2CC2)n1C
- IC50: > 99.5 µM

Structure (SMILES): CC(=O)Nc1cccc(CNC(=O)C2CCN(c3ccc(C=O)cc3)CC2)c1
- IC50: 98.1 µM

Structure (SMILES): O=Cc1ccc(N2CCC(C(=O)N3CCN(c4cccc(O)c4)CC3)CC2)cc1
- IC50: 78.2 µM

Structure (SMILES): O=C1CC[C@H]2[C@H](CCN2C(=O)c2ccc3c(c2)CNC3)N1
- IC50: > 99.5 µM

Structure (SMILES): O=Cc1ccc(N2CCC(C(=O)Nc3ncc(Br)cc3O)CC2)cc1
- IC50: 19.1 µM

Structure (SMILES): NC(=O)C1(N2CCCCC2)CCN(C(=O)C2CCN(c3ccc(C=O)cc3)CC2)CC1
- IC50: > 24.9 µM

Structure (SMILES): O=C(Nc1ccc2c(c1)CNC2)c1cc(F)c2[nH]c(=O)[nH]c2c1
- IC50: > 99.5 µM

Structure (SMILES): O=Cc1ccc(N2CCC(C(=O)N3CCN(CCc4ccccc4)CC3)CC2)cc1
- IC50: 35.6 µM

Structure (SMILES): CC(C)[C@H](NC(=O)[C@@H]1CCCN1C(=O)OCc1ccccc1)P(=O)(Oc1ccc(F)cc1)Oc1ccc(F)cc1
- IC50: > 99.5 µM

Structure (SMILES): Clc1ccc2[nH]ncc2c1[C@@H]1C[C@H]1c1ccc2c(c1)CNC2
- IC50: > 99.5 µM

Structure (SMILES): Cc1cc(C(=O)Nc2cc(-c3cccnc3)ccn2)nn1CCN
- IC50: > 99.5 µM
